Source: paper PMC12302426, “Dihydrokoumine, a dual-target analgesic with reduced side effects isolated from a traditional Chinese medicine” (Journal of Advanced Research, 2024)

Key:
[1] = biological target: T1, M3R (Homo sapiens, UniProt P20309); test: FLIPR Ca2+ antagonist assay in HEK293-M3 cells (carbachol-induced); assay type: cell-based
T1 construct: expressed in transfected cells; host or cells: HEK293 cell membranes
Procedure: FLIPR assay was carried out as reported earlier. Cell lines were seeded in 96-well plates with black walls (Greiner, USA) at 8.0 × 10^4 cells per well. After approximately 22 h of incubation, the cells were exposed to Calcium-6 dye (Molecular Devices, USA) in HBSS buffer supplemented with 20 mM HEPES (pH 7.4) at 37°C for one hour. Samples, redissolved in DMSO and housed in 96-well drug plates, underwent dilution with FLIPR buffer and subsequent automated introduction to the cells. […] In FLIPR antagonist experiments, cells were pre-incubated with the compound for 10 min prior to introducing a specified concentration of agonist. Results were presented as fluorescence (arbitrary units) plotted against time.

[2] = biological target: T2, Kappa opioid receptor (Homo sapiens, UniProt P41145); test: DMR agonist and desensitization assay in HEK293-Kappa cells; assay type: cell-based
T2 construct: expressed in transfected cells; host or cells: HEK293-Kappa
Procedure: (§1) DMR assays were performed using an Epic® BT system (Corning, NY, USA). All used cell lines were directly seeded in Epic 384-well biosensor microplates with a seeding density of 25,000 cells per well. After being cultured for about 22 h, the cells formed a monolayer with a confluency of about 95 % in the cell culture medium. Then the cells were manually washed using assay buffer (1 × HBSS buffer, 10 mM HEPES, pH = 7.4) and maintained in 30 μL of the assay buffer for 1 h. All samples were dissolved in DMSO and diluted freshly with the assay buffer containing 0.1 % BSA.
(§2) The DMR assays were conducted as follows. […] In the case of the DMR desensitization assay, cells were pretreated with analytes for one hour before introducing a specific agonist at the indicated concentration, and the agonist-induced DMR signals were monitored for one hour. Finally, for the DMR antagonist assay, cells underwent a 1-hour pretreatment with an antagonist before the addition of a specific agonist at the indicated concentration, and subsequent DMR signals were recorded over one hour.
The receptor selectivity was evaluated against a set of G protein-coupled receptors (GPCRs), including opioid receptor (Delta/Kappa/NOP), dopamine receptor (D1/D2), orphan receptor (GPR35), adrenergic receptor (α2A/β2), serotonin receptor (5HT2A), histamine receptor (H1) and cannabinoid receptor (CB1). Following a 1-hour pretreatment with DK, a 2-min baseline was established before introducing probes and monitoring DMR signals for another hour. The cells and probes were as follows: Delta, HEK293-Delta, SNC162; Kappa, HEK293-Kappa, ICI199441; NOP, HEK293-NOP, MCOPPB; D1, HEK293-D1, dopamine; D2, HEK293-D2, dopamine; GPR35, CHO-K1-hGPR35, zaprinast; 5HT2A, HEK293-5HT2A, 5-hydroxytryptamine; α2A, HEK293-α2A, L-Noradrenaline; β2, A431, isoprenaline; H1, A431, histamine; CB1, CHO-K1-CB1, CP 55940. The other detailed process was the same as above.

[3] = biological target: T3, NOP opioid receptor (Homo sapiens, UniProt P41146); test: DMR agonist and desensitization assay in HEK293-NOP cells; assay type: cell-based
T3 construct: expressed in transfected cells; host or cells: HEK293-NOP
Procedure: as §1, §2
The receptor selectivity was evaluated against a set of G protein-coupled receptors (GPCRs), including opioid receptor (Delta/Kappa/NOP), dopamine receptor (D1/D2), orphan receptor (GPR35), adrenergic receptor (α2A/β2), serotonin receptor (5HT2A), histamine receptor (H1) and cannabinoid receptor (CB1). […]

[4] = Pharmacokinetics, blood-brain barrier permeability; assay type: in vivo, C57BL/6 male mice
Procedure: Blood‐brain barrier permeability evaluation was as follows. C57BL/6 male mice (about 25 g) were used in evaluation of blood‐brain barrier permeability (n = 3). Mice were given a single dose of DK (20 mg/kg, 5 mL/kg, i.p.) through intraperitoneal injection. Blood (300 μL) was collected at 0.167, 0.5, 1, 2, 3 and 4 h into EDTA tubes. Plasma was obtained by mixing with acetonitrile and centrifugation (3000 r/min, 10 min). Meanwhile, brains were excised after saline perfusion at these time points. Brain samples were grinded (70 Hz, 90 s) and sonicated (30 s) to break up the tissue, followed by centrifugation (15,000 r/min, 10 min, […]) to obtain brain sample.
Brain and plasma drug levels were measured by LC-30AD (Shimadzu Corporation Kyoto, Japan) and SCIEX QTRAP-6500 (AB Sciex, Foster City, CA, USA) and calculated by comparing with internal standard (koumine, 200 ng/mL). The used column was Waters ACQUITY UPLC BEH C18 (2.1*150 mm, 1.7 μm); the mobile phase was composed of (A) 0.1 % FA in water and (B) 0.1 % FA in ACN; the elution gradient was 20 % B (0–3 min), 20–40 % B (3–5 min), 40–95 % B (5–6 min); the flow rate was 0.3 mL/min; and detection was in the positive mode.

T2 sequence (P41145 whole entry): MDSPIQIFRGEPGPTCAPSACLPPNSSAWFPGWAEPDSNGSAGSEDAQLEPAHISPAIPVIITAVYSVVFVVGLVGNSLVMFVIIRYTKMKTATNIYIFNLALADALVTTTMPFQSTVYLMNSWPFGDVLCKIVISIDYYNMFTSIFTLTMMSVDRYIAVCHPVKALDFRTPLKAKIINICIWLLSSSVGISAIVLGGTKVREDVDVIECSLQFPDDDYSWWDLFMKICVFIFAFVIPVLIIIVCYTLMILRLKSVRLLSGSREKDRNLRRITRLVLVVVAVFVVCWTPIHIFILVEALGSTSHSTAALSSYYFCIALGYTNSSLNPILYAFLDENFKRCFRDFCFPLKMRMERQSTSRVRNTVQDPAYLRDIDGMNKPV
T1 sequence (P20309 whole entry): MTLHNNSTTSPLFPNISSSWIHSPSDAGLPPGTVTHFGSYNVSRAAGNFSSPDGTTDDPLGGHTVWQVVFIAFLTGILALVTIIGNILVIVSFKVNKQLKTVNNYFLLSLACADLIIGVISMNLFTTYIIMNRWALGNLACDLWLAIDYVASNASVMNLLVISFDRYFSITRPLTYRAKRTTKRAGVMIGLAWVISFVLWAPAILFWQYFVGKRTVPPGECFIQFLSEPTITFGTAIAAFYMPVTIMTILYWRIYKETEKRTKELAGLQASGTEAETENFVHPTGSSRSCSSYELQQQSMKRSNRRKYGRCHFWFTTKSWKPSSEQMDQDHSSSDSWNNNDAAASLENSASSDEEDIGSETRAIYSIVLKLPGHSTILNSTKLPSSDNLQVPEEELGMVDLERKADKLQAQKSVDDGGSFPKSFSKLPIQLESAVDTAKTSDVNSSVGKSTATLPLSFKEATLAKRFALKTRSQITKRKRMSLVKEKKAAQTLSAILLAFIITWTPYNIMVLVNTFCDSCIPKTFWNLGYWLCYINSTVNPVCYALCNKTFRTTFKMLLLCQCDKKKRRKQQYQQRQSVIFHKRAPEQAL
T3 sequence (P41146 whole entry): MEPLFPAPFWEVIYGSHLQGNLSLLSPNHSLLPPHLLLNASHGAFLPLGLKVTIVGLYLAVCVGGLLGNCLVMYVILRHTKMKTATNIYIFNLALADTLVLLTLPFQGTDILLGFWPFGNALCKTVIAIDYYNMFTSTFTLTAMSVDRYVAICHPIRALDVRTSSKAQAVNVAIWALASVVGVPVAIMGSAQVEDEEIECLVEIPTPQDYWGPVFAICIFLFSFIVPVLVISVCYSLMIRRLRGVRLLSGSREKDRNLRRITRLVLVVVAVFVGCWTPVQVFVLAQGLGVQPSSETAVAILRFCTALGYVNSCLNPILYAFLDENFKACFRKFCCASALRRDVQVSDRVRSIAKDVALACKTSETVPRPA

Q: For `C=CC12CN(C)C3CC14c1ccccc1NC4C1CC2C3CO1` (stereo not shown) [DK], which IC50 ([1]; FLIPR, 5 nM carbachol (Fig. 2D), read-out: IC50 for inhibition of carbachol-induced Ca2+ response) is on record?
A: 11.6 ± 4.31 µM

Q: And the “concentration-dependent inhibition of carbachol-induced Ca2+ response at M3R compared with purified DK” value ([1]; semisynthesized material)?
A: its activity was close to that of purified DK

Q: And the DMR agonist response ([2]; HEK293-Kappa cells)?
A: unable to trigger a concentration-dependent DMR response

Q: And the “probe-induced DMR response after DK pretreatment” value ([2]; HEK293-Kappa, 25 nM ICI199441, pretreatment one hour)?
A: had little effect on the DMR response produced by the respective probes

Q: And the “antagonist effect at high concentration (decrease of probe DMR response)” value ([2]; HEK293-Kappa, ICI199441, high-concentration of DK)?
A: very weak antagonist effects

Q: What about the DMR agonist response ([3]; HEK293-NOP cells) of the same compound?
A: unable to trigger a concentration-dependent DMR response

Q: And the “probe-induced DMR response after DK pretreatment” value ([3]; HEK293-NOP, 25 nM MCOPPB, pretreatment one hour)?
A: had little effect on the DMR response produced by the respective probes

Q: And the Kp ([4]; male, C57BL/6, mouse, brain/plasma, ip, 20 mg/kg, read-out: Kp (AUCbrain/AUCplasma))?
A: 1.27

Q: What about the AUC ([4]; male, C57BL/6, mouse, ip, mice, plasma, i.p., 20 mg/kg (method), read-out: (AUC)0-4 h in plasma) of the same compound?
A: 733 ng·h/mL

Q: And the “(AUC)0-4 h in brain” value ([4]; mice, brain, i.p., 20 mg/kg (method))?
A: 933.4 ng·h/g
